Our source for the Ki values is ChEMBL document CHEMBL1149117, “Synthesis and monoamine transporter binding of 2-(diarylmethoxymethyl)-3 beta-aryltropane derivatives” (J Med Chem, 2004).

Experiment [1] deals with Sodium-dependent dopamine transporter (Rattus norvegicus, UniProt P23977). The experiment in a line: Binding affinity against dopamine transporter by using [3H]WIN-35428 as a radioligand.
In experiment [2] the target is T1, Muscarinic acetylcholine receptor M1 (Rattus norvegicus, UniProt P08482).
T1 sequence (P08482 whole entry): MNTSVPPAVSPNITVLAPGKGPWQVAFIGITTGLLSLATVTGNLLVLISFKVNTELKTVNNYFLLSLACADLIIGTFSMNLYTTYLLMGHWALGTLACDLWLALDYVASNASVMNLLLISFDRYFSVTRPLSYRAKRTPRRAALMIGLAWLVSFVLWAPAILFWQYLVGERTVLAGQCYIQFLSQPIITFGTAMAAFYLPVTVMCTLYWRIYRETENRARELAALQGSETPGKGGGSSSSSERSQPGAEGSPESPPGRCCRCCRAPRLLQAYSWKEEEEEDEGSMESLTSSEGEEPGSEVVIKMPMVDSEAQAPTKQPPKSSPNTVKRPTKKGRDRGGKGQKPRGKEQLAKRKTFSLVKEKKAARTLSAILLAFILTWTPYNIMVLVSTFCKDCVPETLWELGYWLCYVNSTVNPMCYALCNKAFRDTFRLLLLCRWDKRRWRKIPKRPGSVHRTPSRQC
The experiment in a line: Binding affinity against Muscarinic acetylcholine receptor M1 by using [3H]pirenzepine as a radioligand.

Experiment [3] concerns the target Norepinephrine transporter (Rattus norvegicus, UniProt Q9WTR4). The experiment in a line: Binding affinity against norepinephrine transporter by using [3H]nisoxetine as a radioligand.
Experiment [4] addresses Sodium-dependent serotonin transporter (Rattus norvegicus, UniProt P31652). As to the kind of experiment: Binding affinity against serotonin transporter by using [3H]-citalopram as a radioligand.

Chain of Sodium-dependent dopamine transporter (P23977 whole entry): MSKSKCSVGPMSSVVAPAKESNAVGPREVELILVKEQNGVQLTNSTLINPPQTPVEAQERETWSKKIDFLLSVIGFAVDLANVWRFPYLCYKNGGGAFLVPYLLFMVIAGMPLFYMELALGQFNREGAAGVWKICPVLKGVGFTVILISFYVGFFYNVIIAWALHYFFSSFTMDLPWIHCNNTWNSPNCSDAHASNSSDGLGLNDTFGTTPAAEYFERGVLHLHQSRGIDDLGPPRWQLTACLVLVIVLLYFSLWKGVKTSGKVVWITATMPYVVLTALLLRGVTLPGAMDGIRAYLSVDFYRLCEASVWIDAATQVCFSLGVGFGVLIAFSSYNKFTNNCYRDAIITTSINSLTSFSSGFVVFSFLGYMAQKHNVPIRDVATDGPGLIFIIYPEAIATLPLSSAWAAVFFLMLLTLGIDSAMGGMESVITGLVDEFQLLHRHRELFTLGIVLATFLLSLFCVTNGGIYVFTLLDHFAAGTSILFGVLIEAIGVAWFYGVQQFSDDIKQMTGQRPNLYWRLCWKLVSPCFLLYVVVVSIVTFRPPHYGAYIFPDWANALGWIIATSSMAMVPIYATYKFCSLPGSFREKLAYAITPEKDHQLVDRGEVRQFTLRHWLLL
Chain of Sodium-dependent serotonin transporter (P31652 whole entry): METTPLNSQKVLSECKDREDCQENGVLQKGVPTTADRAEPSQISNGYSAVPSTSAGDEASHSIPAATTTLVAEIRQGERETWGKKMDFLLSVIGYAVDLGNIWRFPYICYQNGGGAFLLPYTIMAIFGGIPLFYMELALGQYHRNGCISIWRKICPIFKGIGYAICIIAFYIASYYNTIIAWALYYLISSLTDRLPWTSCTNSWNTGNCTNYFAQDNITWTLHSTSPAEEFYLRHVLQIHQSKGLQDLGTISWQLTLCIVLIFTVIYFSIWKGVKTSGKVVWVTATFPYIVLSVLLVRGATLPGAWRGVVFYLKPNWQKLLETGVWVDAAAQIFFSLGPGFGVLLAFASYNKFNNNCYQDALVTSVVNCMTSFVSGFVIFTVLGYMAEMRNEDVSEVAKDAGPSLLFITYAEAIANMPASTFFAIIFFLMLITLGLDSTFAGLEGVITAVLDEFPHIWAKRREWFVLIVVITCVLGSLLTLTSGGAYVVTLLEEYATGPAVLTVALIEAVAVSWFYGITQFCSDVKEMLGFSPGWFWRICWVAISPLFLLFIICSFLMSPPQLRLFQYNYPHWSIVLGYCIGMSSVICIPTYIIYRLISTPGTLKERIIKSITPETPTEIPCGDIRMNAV
Chain of Norepinephrine transporter (Q9WTR4 whole entry): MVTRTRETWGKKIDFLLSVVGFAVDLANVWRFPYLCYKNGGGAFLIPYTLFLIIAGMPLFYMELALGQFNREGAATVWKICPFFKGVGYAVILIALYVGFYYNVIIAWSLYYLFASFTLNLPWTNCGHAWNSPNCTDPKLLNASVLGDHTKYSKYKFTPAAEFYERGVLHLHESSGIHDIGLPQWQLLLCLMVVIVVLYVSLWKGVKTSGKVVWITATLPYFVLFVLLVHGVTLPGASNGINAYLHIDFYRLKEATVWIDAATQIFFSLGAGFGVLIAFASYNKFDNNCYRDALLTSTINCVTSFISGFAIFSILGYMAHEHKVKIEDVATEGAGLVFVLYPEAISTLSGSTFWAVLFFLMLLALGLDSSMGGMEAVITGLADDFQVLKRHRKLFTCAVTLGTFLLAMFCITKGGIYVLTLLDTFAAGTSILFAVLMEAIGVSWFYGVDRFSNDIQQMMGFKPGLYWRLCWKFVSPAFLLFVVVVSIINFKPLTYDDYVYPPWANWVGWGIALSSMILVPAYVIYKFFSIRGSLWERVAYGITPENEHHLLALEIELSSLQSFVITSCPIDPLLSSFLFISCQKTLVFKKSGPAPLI

Take `Cc1ccc(C2CC3CCC([C@@H]2COC(c2ccccc2)c2ccc(Cl)cc2)N3C)cc1` (some centres undefined): the Ki – broadly, a measure of affinity in units of concentration, obtained from inhibition or displacement – in experiment [1] was found to be 937 nM; in experiment [2] it was 18200 nM; in experiment [3], 22500 nM; in experiment [4], 1000 nM.
For the molecule `CN1C2CCC1[C@H](COC(c1ccccc1)c1ccccc1)C(c1ccc(Cl)cc1)C2` (some centres undefined), the Ki was 478 nM in experiment [1], 11500 nM in experiment [2], 4000 nM in experiment [3] and 408 nM in experiment [4].
In the case of `Cc1ccc(C2CC3CCC([C@@H]2COC(c2ccccc2)c2ccccc2)N3C)cc1` (some centres undefined), the Ki in experiment [1] was 455 nM; in experiment [2], 12600 nM; in experiment [3] it was 2610 nM; in experiment [4] it was 530 nM.
The matching figures for `CN1C2CCC1[C@H](COC(c1ccc(F)cc1)c1ccc(F)cc1)C(c1ccc(Cl)cc1)C2` (some centres undefined): 250 nM, 9930 nM, 52300 nM and 724 nM.
For `CN1C2CCC1[C@H](COC(c1ccccc1)c1ccc(Cl)cc1)C(c1ccc(Cl)cc1)C2` (some centres undefined) the same measures were 553 nM, 9600 nM, 5600 nM and 1290 nM.
For `Cc1ccc(C2CC3CCC([C@@H]2COC(c2ccc(F)cc2)c2ccc(F)cc2)N3C)cc1` (some centres undefined) the same measures were 690 nM, 9700 nM, 16000 nM and 786 nM.
For `Cc1ccc(C2CC3CCC([C@H]2COC(c2ccccc2)c2ccc(Cl)cc2)N3C)cc1` (some centres undefined), the Ki in experiment [1] came out at 80 nM; in experiment [2], 31600 nM; in experiment [3], 4400 nM; in experiment [4] it was 443 nM.
For `CN1C2CCC1[C@@H](COC(c1ccc(F)cc1)c1ccc(F)cc1)C(c1ccc(Cl)cc1)C2` (some centres undefined), the Ki in experiment [1] worked out at 99 nM; in experiment [2], 16300 nM; in experiment [3] it was 2890 nM; in experiment [4], 245 nM.
With `Cc1ccc(C2CC3CCC([C@H]2COC(c2ccc(F)cc2)c2ccc(F)cc2)N3C)cc1` (some centres undefined), the Ki came out at 62 nM in experiment [1], 15500 nM in experiment [2], 1830 nM in experiment [3] and 233 nM in experiment [4].
In experiment [1], `CN1C2CCC1C(CCCOC(c1ccc(F)cc1)c1ccc(F)cc1)C(c1ccccc1)C2` (centres undefined) came in with a Ki of 60 nM.
In the case of `CN1C2CCC1[C@@H](COC(c1ccccc1)c1ccc(Cl)cc1)C(c1ccc(Cl)cc1)C2` (some centres undefined), the Ki was determined as 76 nM in experiment [1], 39900 nM in experiment [2], 2060 nM in experiment [3] and 462 nM in experiment [4].
Molecule `CN1C2CCC1[C@@H](COC(c1ccccc1)c1ccc(Cl)cc1)C(c1ccc(F)cc1)C2` (some centres undefined) yielded a Ki in experiment [1] of 112 nM.
Still for that read-out and setting: under `CN1C2CCC1[C@@H](COC(c1ccccc1)c1ccccc1)C(c1ccc(F)cc1)C2` (some centres undefined) stands 49 nM.
On to `CN1C2CCC1[C@@H](COC(c1ccc(F)cc1)c1ccc(F)cc1)C(c1ccc(F)cc1)C2` (some centres undefined), for which the Ki in experiment [1] was determined as 63 nM.
Take `Cc1ccc(C2CC3CCC([C@H]2COC(c2ccccc2)c2ccccc2)N3C)cc1` (some centres undefined): the Ki in experiment [1] was 34 nM; in experiment [2], 10600 nM; in experiment [3], 684 nM; in experiment [4] it was 121 nM.
As to `CN1C2CCC1C(CCCOC(c1ccccc1)c1ccc(Cl)cc1)C(c1ccccc1)C2` (centres undefined), the Ki in experiment [1] came out at 261 nM; in experiment [2], 24600 nM; in experiment [4] it was 45 nM.
On to `CN1C2CCC1C(CCCOC(c1ccccc1)c1ccccc1)C(c1ccccc1)C2` (centres undefined), for which the Ki came to 139 nM in experiment [1], 7970 nM in experiment [2], 207 nM in experiment [3] and 61 nM in experiment [4].
For `CN1C2CCC1[C@@H](COC(c1ccccc1)c1ccccc1)C(c1ccc(Cl)cc1)C2` (some centres undefined), the Ki in experiment [1] turned out to be 52 nM; in experiment [2] it was 11000 nM; in experiment [3], 1190 nM; in experiment [4] it was 147 nM.
